# From ChEMBL document CHEMBL3507680, “University of Dundee, Gates Library screen for HepG2 cell viability”
# Experiment: Human HepG2 cell viability assay in 384 well format
# Assay type: toxicity, cell-based
# Parameters: dose 125 nL, time 70.5 hour; cytotoxicity at 70.5 h: concentration not given beside the values
# Conditions: HepG2 cells, read-out: Inhibition
row,SMILES,cytotoxicity at 70.5 h [%]
1,CC(C)(C)c1nnnn1CC(=O)N(CCC#N)c1ccccc1,-9.07
2,Cn1ccc(C(=O)NCCOc2ccc(C(C)(C)C)cc2)cc1=O,-4.21
3,O=C(NCCSC1CCCC1)c1cc(C2CC2)on1,-0.97
4,CC(=O)N(C)Cc1ccccc1NCc1c(C)noc1C,-3.61
5,CC(=O)c1ccc(OCC(=O)c2cccn2C)cc1,-0.625
6,O=C(C1CC(c2ccccc2)=NO1)N1CCc2ccccc21 (stereo not given),28.5
7,CCC(NS(C)(=O)=O)c1ccccc1OC (stereo not given),-1.94
8,O=C(CCn1cccn1)NCCOc1cccc(Cl)c1,-7.23
9,Cc1ccc(NCc2ccccc2C#N)cc1-n1cnnn1,0.552
10,CN(C)C(=O)C1CCCN1c1ncnc2ccsc12 (stereo not given),-10.1
11,CN1CCC(CNC(=O)c2cccc(C(F)(F)F)c2)c2ccccc21 (stereo not given),0.294
12,Cc1nnc(NCc2cccc(OCC3CCCO3)c2)c(C#N)c1C (stereo not given),29
13,CS(=O)(=O)c1ccc(NCC2CCCO2)c(S(C)(=O)=O)c1 (stereo not given),-9.12
14,CCn1cnnc1CNc1nc(C)nc2scc(CC(C)C)c12,-15.9
15,Cc1cc(NCCc2nc(C)cs2)nc(-c2cccnc2)n1,-9.72
16,Cn1cc(S(=O)(=O)N(CC(F)(F)F)C2CC2)cc1C(N)=O,-4.65
17,N#Cc1ncn(CC(=O)Cc2c(F)cccc2Cl)n1,-5.66
18,Cc1c(C(C)Nc2ncnc3sccc23)cnn1C (stereo not given),-8.04
19,Cc1nnc(NCc2cccc(OCc3ccccn3)c2)c(C#N)c1C,-4.44
20,c1cc(CNCCc2cn3ccccc3n2)c2c(c1)OCCCO2,-6.72
21,Cc1cc(C)c2cc(C(=O)N3CCN(Cc4ccco4)CC3)[nH]c2c1,-13.2
22,Cc1csc(NC(=O)CN(C)CCOc2cccc(F)c2)n1,15.2
23,Cc1ccccc1OCCn1cnc2oc(C)c(C(=O)O)c2c1=O,-7.96

row,SMILES,cytotoxicity at 70.5 h [%]
1,CNC(=O)Nc1cc(-c2ccccc2C)nn1CCO,21.1
2,CN(C(=O)CCNC(=O)NC1CCCCC1)c1ccccc1,38.6
3,COc1ccc(NC(=O)NCC(O)c2ccc(F)cc2F)c(OC)c1 (stereo not given),2.76
4,CC1CCN(C(=O)c2ccnc(-n3cncn3)c2)c2ccccc21 (stereo not given),13.2
5,CNC(=O)NC(=O)CSc1ccc2c(c1)CCC2,-5.43
6,CCN1C(=O)CC(N(C)Cc2nc3ccccc3c(=O)[nH]2)C1=O (stereo not given),-7.75
7,Cc1ccccc1CSCCn1nc2ccccn2c1=O,-9.36
8,CN1C(=O)C2(NC(=O)c3ccccc3O2)c2ccccc21 (stereo not given),-16.5
9,Cc1n[nH]c(C(=O)NCc2ccnc(OCC(F)(F)F)c2)c1Br,-4.39
10,O=C(Nc1cccc(OCc2cccc(F)c2)c1)C1COCCO1 (stereo not given),-0.586
11,CNC(=O)c1cc2ccccc2n1C,16.4
12,CN(C)S(=O)(=O)N1CCN(c2cc(-n3cccc3)ncn2)CC1,-6
13,Cn1cc(C(=O)OC2CN(c3nc4c(C(F)(F)F)cccc4s3)C2)nn1,1.02
14,CCOCC(=O)N1CCC(CSCc2ccco2)CC1,-10.8
15,O=C(CN1C(=O)CCC1=O)N1CCC(CSCc2ccco2)CC1,-4.52
16,O=C(c1ccc2[nH]cnc2c1)N1CCC(Oc2cccnc2)CC1,-6.98
17,CCCNC(=O)c1ccc2c(OC)n(C)nc2c1,0.507
18,O=c1ccc2c([nH]1)CCN(S(=O)(=O)c1ccc3c(c1)OCCO3)C2,1.39
19,O=C(CN1C(=O)CCC1=O)N1CCOC2(CCOCC2)C1,29.6
20,O=C(CN1C(=O)c2ccccc2C1=O)N1CCOC2(CCOCC2)C1,3.73
21,CN(C)CC1CSCCCN1S(=O)(=O)Cc1cccc(F)c1 (stereo not given),-3.38
22,COc1cccc(CC(=O)N2CCCSCC2CN2CCCC2)c1 (stereo not given),-3.04
23,O=C(COc1ccc(Cl)cc1Cl)N1CCCSCC1CN1CCOCC1 (stereo not given),0.222

row,SMILES,cytotoxicity at 70.5 h [%]
1,Cc1cnc2n(c1=O)CC(C(=O)NCc1ccccc1Cl)CS2 (stereo not given),2.42
2,Cc1ccc(Cl)cc1NC(=O)C1CSc2ncc(C)c(=O)n2C1 (stereo not given),-13.9
3,CC(C)(C)c1cc(=O)n2c(n1)SCC(C(=O)NCc1ccccn1)C2 (stereo not given),-5.78
4,CC(C)(C)c1cc(=O)n2c(n1)SCC(C(=O)NCc1ccco1)C2 (stereo not given),29.2
5,CCc1c(C)nc2n(c1=O)CC(C(=O)Nc1sccc1C(=O)OC)CS2 (stereo not given),-6.34
6,CN(C)c1ccc(C(O)CNS(=O)(=O)C2CC2)cc1 (stereo not given),10.1
7,CCCc1nnsc1C(=O)NCC(O)c1ccc(SC)cc1 (stereo not given),28.8
8,COCCN(Cc1ccoc1)C(=O)CSc1ccc(F)cc1,-5.61
9,COCCN(Cc1ccoc1)S(=O)(=O)c1ccc(F)c(Cl)c1,42.1
10,COCCN(Cc1ccoc1)S(=O)(=O)c1cccc(C(F)(F)F)c1,-13.5
11,CCOc1ccccc1C(=O)NCCC(O)c1ccoc1 (stereo not given),9.07
12,O=C(COc1ccccc1F)NCCC(O)c1ccoc1 (stereo not given),-4.07
13,CCc1ccc(S(=O)(=O)NCCC(O)c2ccoc2)s1 (stereo not given),-10.1
14,COc1ccc(S(=O)(=O)NCCC(O)c2ccoc2)c(C)c1 (stereo not given),-5.52
15,Cc1cc(C(O)CCNC(=O)c2ccc(Cl)s2)c(C)o1 (stereo not given),-8.23
16,COc1ccc(S(=O)(=O)NCCC(O)c2cc(C)oc2C)c(C)c1 (stereo not given),-5.42
17,COC1(CNC(=O)c2cccc(C#N)c2)CCSC1 (stereo not given),42.8
18,COC1(CNC(=O)NCCc2ccccc2)CCSC1 (stereo not given),15.9
19,COc1ncccc1C(=O)Nc1ccccc1-c1ccc(=O)n(C)n1,3.64
20,COCC(=O)Nc1ccccc1-c1ccc(=O)n(C)n1,-4.15
21,COc1ccc(C(=O)Nc2ccccc2-c2ccc(=O)n(C)n2)nn1,1.94
22,Cc1cccc(NC(=O)c2ccc(-n3cncn3)nn2)n1,-1.44
23,O=C(NCCn1nc(-n2cncn2)ccc1=O)c1ccc(F)cc1F,-5.23

row,SMILES,cytotoxicity at 70.5 h [%]
1,CCSc1ccccc1C(=O)NCCn1nc(-n2cncn2)ccc1=O,-10.2
2,Cc1csc(C(=O)N2CCC(S(C)(=O)=O)C2)c1 (stereo not given),-3.26
3,O=C(c1ccccn1)N1CCC(S(=O)(=O)c2ccccc2)C1 (stereo not given),-9.33
4,Cc1csc(C(=O)N2CCC(S(C)(=O)=O)CC2)c1,-5.62
5,O=S(=O)(CC1CCCN1S(=O)(=O)c1cccnc1)c1ccccc1 (stereo not given),-8.38
6,Cc1nn(C)c(C)c1S(=O)(=O)NCC(C)(O)c1ccc2c(c1)OCO2 (stereo not given),-1.59
7,Cn1cnc(S(=O)(=O)NCC2(O)CCc3ccccc32)c1 (stereo not given),9.61
8,Cn1cnc(S(=O)(=O)NCC2CCN(C(=O)Oc3ccccc3)CC2)c1,0.307
9,O=c1[nH]c2cc(S(=O)(=O)N3CCC(c4ccsc4)CC3)ccc2o1,-5
10,Cn1cc(C(=O)Nc2ccc(CC(=O)NC3CC3)cc2)nn1,-6.27
11,Cn1cc(S(=O)(=O)NCc2ccsc2)cn1,13.8
12,Cn1cc(S(=O)(=O)NCC2CCN(C(=O)Oc3ccccc3)CC2)cn1,2.31
13,COc1ccc(CC(=O)Nc2c(C)nc(N3CCCC3)nc2C)cc1,-2.54
14,Cc1nc(N2CCCC2)nc(C)c1NC(=O)c1ccco1,-1.46
15,Cc1nc(N2CCOCC2)nc(C)c1NC(=O)c1ccco1,3.55
16,Cc1nc(N(C)C)nc(C)c1NS(=O)(=O)c1ccc(OC(F)(F)F)cc1,-6.13
17,Cc1cc(N2CCCC2)nc(CNS(=O)(=O)Cc2ccccc2)n1,-7.92
18,CC(=O)N1CCN(c2cc(N(C)C)cnn2)CC1,-3.71
19,CN(C)c1cnnc(N2CCN(C(=O)CCC3CCCCC3)CC2)c1,-7.83
20,CN(C)c1cnnc(N2CCN(C(=O)Cc3ccccc3)CC2)c1,-8
21,CC(=O)N1CCN(c2cnnc(N3CCCC3)c2)CC1,-1.26
22,CS(=O)(=O)N1CCN(c2cnnc(N3CCCC3)c2)CC1,-12.9
23,CC(=O)N1CCN(c2cc(N3CCOCC3)cnn2)CC1,6.14

row,SMILES,cytotoxicity at 70.5 h [%]
1,CCOc1ncc(NC(=O)c2ccccn2)c(OCC)n1,-13.3
2,CCCS(=O)(=O)NCCn1ccc(-c2cccs2)n1,25.9
3,Cc1nnsc1C(=O)NCc1nn(C2CCCC2)c2c1CCCC2,-5.38
4,Cn1nc(CNC(=O)c2ccc(OC(F)(F)F)cc2)c2c1CCOC2,2.03
5,Cc1ccc(N2CCc3sc(C(=O)N4CCOCC4)cc32)nn1,2.34
6,COCCn1cc2c(n1)C(CNS(C)(=O)=O)OCC2 (stereo not given),-2.51
7,O=C(Nc1ccccc1)C1=NOC2(CCCN(C(=O)N3CCCC3)C2)C1 (stereo not given),-0.586
8,CCOCc1ncn2c1CN(C(=O)Nc1ccc(CC)cc1)CC2,14.1
9,Cc1cccc(NC(=O)N2CCn3cnc(COCC4CC4)c3C2)c1,-13.2
10,CCOCc1ncn2c1CN(C(=O)Nc1cccc(F)c1)CC2,-13.3
11,CNC(=O)CN1CC[C@H]2CN(C(=O)c3cc[nH]n3)C[C@H]2C1,-8.85
12,Cc1cccc(CN2CC3(CCN(C(=O)N(C)C)CC3)OCC2=O)n1,-0.965
13,O=C(NCC1CCOCC1)[C@H]1C[C@@H]2CCN(c3nncs3)C[C@@H]2O1,-9.76
14,COCCNC(=O)[C@H]1C[C@@H]2CCN(c3ccccc3)C[C@H]2O1,-9.93
15,O=C(NC1CC1)[C@@H]1CCO[C@@H]2CCN(CCc3ccccc3)C[C@@H]21,-6.53
16,Cn1cc(CN2CCC(F)(F)C3(CCN(c4ncc(F)cn4)C3)C2)cn1 (stereo not given),-13.8
17,O=C([C@@H]1CCO[C@@H]2CCN(CCc3ccccc3)C[C@@H]21)N1CCCC1,15.3
18,c1cncc(C2COC3(CCN(Cc4nccs4)CC3)C2)c1 (stereo not given),-9.69
19,Cn1cc2c(n1)C(CNCc1ccco1)OCC2 (stereo not given),19.8
20,COCC1CC2(CCN(Cc3ccc(C)o3)CC2)CN1C(C)C (stereo not given),-3.1
21,COCC1CN(Cc2ccc3c(c2)OCO3)Cc2ncn(C)c21 (stereo not given),-12.8
22,CN1CCN(Cc2cnc3n2CCN(CCc2ccccc2)C3)CC1,19.5
23,CN1C(Cn2cccn2)C[C@@H]2CN(Cc3ccccn3)CC[C@@H]21 (stereo not given in full),-10.5
